assay: method code SF, from DOI: 10.2478/s11696-010-0084-9

Row | SMILES | logP
1 | Cc1cccc(C(=O)NCc2cccnc2)c1O | 1.67
2 | O=C(NCc1cccnc1)c1ccc(Cl)cc1O | 1.74
3 | Cc1ccc(C(=O)NCc2ccccn2)c(O)c1 | 2.09
4 | O=C(NCc1ccccn1)c1ccc(Cl)cc1O | 2.16
5 | O=C(NCc1cccnc1)c1cc(F)ccc1O | 1.34
6 | Cc1cccc(C(=O)NCc2ccccn2)c1O | 2.09
7 | Cc1ccc(C(=O)NCc2cccnc2)c(O)c1 | 1.67
8 | O=C(NCc1ccccn1)c1cc(Cl)ccc1O | 2.16
9 | O=C(NCc1cccnc1)c1cc(Br)cc(Br)c1O | 2.84
10 | O=C(NCc1ccccn1)c1cc(Br)cc(Br)c1O | 3.26
11 | COc1cccc(C(=O)NCc2cccnc2)c1O | 1.06
12 | O=C(NCc1cccnc1)c1cc(Cl)ccc1O | 1.74
13 | O=C(NCc1ccccn1)c1cc(F)ccc1O | 1.76
14 | O=C(NCc1cccnc1)c1cc(Cl)cc(Cl)c1O | 2.3
15 | COc1cccc(C(=O)NCc2ccccn2)c1O | 1.48
16 | COc1ccc(C(=O)NCc2cccnc2)c(O)c1 | 1.06

Further lines, results first:

Row | logP | SMILES
17 | 3.64 | O=C(NCc1ccccc1)c1cc(Cl)cc(Cl)c1O
18 | 4.18 | O=C(NCc1ccccc1)c1cc(Br)cc(Br)c1O
19 | 3.08 | O=C(NCc1ccccc1)c1cc(Cl)ccc1O
20 | 2.43 | O=C(NCc1ccccn1)c1cc(Br)ccc1O
21 | 3.08 | O=C(NCc1ccccc1)c1ccc(Cl)cc1O
22 | 1.18 | O=C(NCc1cccnc1)c1ccccc1O
23 | 2.52 | O=C(NCc1ccccc1)c1ccccc1O
24 | 2.01 | O=C(NCc1cccnc1)c1cc(Br)ccc1O
25 | 2.39 | COc1cccc(C(=O)NCc2ccccc2)c1O
26 | 3.53 | O=C(NCc1ccccc1)c1cc(Br)ccc1O

Reference: the SangsterLogP compilation
